One assay addresses T1, human factor Xa (Homo sapiens, UniProt P00742).
T1 construct: purchased Enzyme Research Laboratories
In words: Determination of Factor Xa IC50 (cleavage of fluorogenic substrate F-S2765). Type of assay: biochemical. To be noted: 30 pM human factor Xa; compound @ 1 μM. On the procedure: The ability of compounds to act as inhibitors of human factor Xa catalytic activity was assessed by determination of that concentration of test substance that inhibited by 50% (IC50) the ability of human factor Xa to cleave the fluorogenic substrate F-S2765 (N-α-Z-D-Arg-Gly-Arg-pNA HCl, California Peptide Research). […] The IC50 was determined at 3 pM and/or 30 pM concentrations of human factor Xa (Enzyme Research Laboratories). These concentrations were achieved by diluting a stock solution of human factor Xa in the appropriate amount of buffer containing 10 mM HEPES, 150 mM NaCl, and 0.1% BSA at pH 7.4 (HBSA buffer). Accordingly, 73 μL of the factor Xa/buffer solution was added to 2.5 μL of DMSO-reconstituted compound and incubated for 55 minutes at room temperature. After warming to 37° C. for am additional 5 minutes, 50 μL of rewarmed substrate was added and the IC50 determined by monitoring the increase in absorbance at 390 nm excitation/460 nm emission (455 nm cutoff) in a fluorometric plate reader or 30 minutes.
T1 sequence (P00742 235-488 limits assumed): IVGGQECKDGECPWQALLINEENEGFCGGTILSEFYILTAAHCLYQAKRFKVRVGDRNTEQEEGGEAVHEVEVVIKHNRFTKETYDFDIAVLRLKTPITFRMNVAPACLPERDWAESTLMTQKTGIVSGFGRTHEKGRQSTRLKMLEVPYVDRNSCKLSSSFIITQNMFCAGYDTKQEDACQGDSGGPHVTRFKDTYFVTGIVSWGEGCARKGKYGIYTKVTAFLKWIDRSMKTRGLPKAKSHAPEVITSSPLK
T1 sequence (P00742 41-179 partner limits assumed): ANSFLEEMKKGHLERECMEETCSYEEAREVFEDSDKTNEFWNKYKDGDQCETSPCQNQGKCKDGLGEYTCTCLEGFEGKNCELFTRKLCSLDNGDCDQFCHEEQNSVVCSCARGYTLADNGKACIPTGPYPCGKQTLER
On to `CN(C)CCN(CC(=O)Nc1ccc(-c2ccccc2S(C)(=O)=O)cc1F)C(=O)Nc1ccc(Cl)cc1` [Example 26, 2-[3-(4-Chloro-phenyl)-1-(2-dimethylamino-ethyl)-ureido]-N-(3-fluoro-2′-methanesulfonyl-biphenyl-4-yl)-acetamide], for which the “FxXa 30 pM, % @ 1 μM” value stood at 13.7% @ 1 μM.
On the same count and under the same terms, then `CS(=O)(=O)c1ccccc1-c1ccc(NC(=O)CN(Cc2ccccc2)C(=O)Nc2ccc(Cl)cc2)c(F)c1` [Example 27, 2-[1-Benzyl-3-(4-chloro-phenyl)-ureido]-N-(3-fluoro-2′-methanesulfonyl-biphenyl-4-yl)-acetamide], with 30% @ 1 μM.

The assay is the same for the next values; noted with them: 30 pM human factor Xa; read-out: FxXa 30 pM IC50.
For the compound `NS(=O)(=O)c1ccccc1-c1ccc(NC(=O)C(CO)(CO)NC(=O)Nc2ccc(Cl)cc2)cc1` [Example 15, 2-[3-(4-Chloro-phenyl)-ureido]-3-hydroxy-2-hydroxymethyl-N-(2′-sulfamoyl-biphenyl-4-yl)-propionamide], the IC50 (usually the concentration needed to halve the response being measured) is 0.029 µM.
On the same count and under the same terms, then `NS(=O)(=O)c1ccccc1-c1ccc(NC(=O)C2(NC(=O)Nc3ccc(Cl)cc3)CCOCC2)c(F)c1` [Example 16, 4-[3-(4-Chloro-phenyl)-ureido]-tetrahydro-pyran-4-carboxylic acid (3-fluoro-2′-sulfamoyl-biphenyl-4-yl)-amide], with 0.252 µM; and `NS(=O)(=O)c1ccccc1-c1ccc(NC(=O)C2(NC(=O)Nc3ccc(Cl)cc3)CCSCC2)c(F)c1` [Example 17, 4-[3-(4-Chloro-phenyl)-ureido]-tetrahydro-thiopyran-4-carboxylic acid (3-fluoro-2′-sulfamoyl-biphenyl-4-yl)-amide], with 0.065 µM.
Turning to `CS(=O)(=O)c1ccccc1-c1ccc(NC(=O)[C@]2(NC(=O)Nc3ccc(Cl)cc3)C[C@@H]2CO)c(F)c1` [Example 18, (1S,2S)-1-[3-(4-Chloro-phenyl)-ureido]-2-hydroxymethyl-cyclopropanecarboxylic acid (3-fluoro-2′-methanesulfonyl-biphenyl-4-yl)-amide], the IC50 came out at 0.021 µM.
Same read-out and setting: with `O=C(Nc1ccc(Cl)cc1)N[C@@]1(C(=O)Nc2ccc(N3CCCCC3=O)cc2F)C[C@@H]1CO` [Example 19, (1S,2S)-1-[3-(4-Chloro-phenyl)-ureido]-2-hydroxymethyl-cyclopropanecarboxylic acid [2-fluoro-4-(2-oxo-piperidin-1-yl)-phenyl]-amide] the figure was 0.129 µM; with `CS(=O)(=O)c1ccccc1-c1ccc(NC(=O)[C@@]2(NC(=O)Nc3ccc(Cl)cc3)C[C@@H]2CO)c(F)c1` [Example 20, (1R,2S)-1-[3-(4-Chloro-phenyl)-ureido]-2-hydroxymethyl-cyclopropanecarboxylic acid (3-fluoro-2′-methanesulfonyl-biphenyl-4-yl)-amide], 0.035 µM; with `O=C(Nc1ccc(Cl)cc1)N[C@]1(C(=O)Nc2ccc(N3CCCCC3=O)cc2F)C[C@@H]1CO` [Example 21, (1R,2S)-1-[3-(4-Chloro-phenyl)-ureido]-2-hydroxymethyl-cyclopropanecarboxylic acid [2-fluoro-4-(2-oxo-piperidin-1-yl)-phenyl]-amide], 0.14 µM.
Same read-out and setting: then `CS(=O)(=O)c1ccccc1-c1ccc(NC(=O)C2(NC(=O)Nc3ccc(Cl)cc3)CCN(C(=O)OCc3ccccc3)C2)c(F)c1` (stereo not drawn) [Example 22, 3-[3-(4-Chloro-phenyl)-ureido]-3-(3-fluoro-2′-methanesulfonyl-biphenyl-4-ylcarbamoyl)-pyrrolidine-1-carboxylic acid benzyl ester], with 0.175 µM.
The same measure, in the same setting: with `COCCN(CC(=O)Nc1ccc(-c2ccccc2S(C)(=O)=O)cc1F)C(=O)Nc1ccc(Cl)cc1` [Example 24, 2-[3-(4-Chloro-phenyl)-1-(2-methoxy-ethyl)-ureido]-N-(3-fluoro-2′-methanesulfonyl-biphenyl-4-yl)-acetamide] the figure was 0.026 µM; with `CC(C)CN(CC(=O)Nc1ccc(-c2ccccc2S(C)(=O)=O)cc1F)C(=O)Nc1ccc(Cl)cc1` [Example 25, 2-[3-(4-Chloro-phenyl)-1-isobutyl-ureido]-N-(3-fluoro-2′-methanesulfonyl-biphenyl-4-yl)-acetamide], 0.105 µM.

The values are drawn from patent publication US20040167131A1, “Inhibitors of factor Xa and other serine proteases involved in the coagulation cascade” (Pfizer Inc., priority 2002, published 2004).
